Test results published in US20030165575A1, “Methods and compositions for treatment and diagnosis of alzheimer disease and other disorders” (Research Foundation for Mental Hygeine, Inc., priority 1994, published 2003).

Experiments:
PP-2B = target: T1, PP-2B (Bos taurus, UniProt P48452); experiment: Effect of effectors on dephosphorylation of AD P-tau by PP-2B (immunoblot); assay type: biochemical, bovine; settings: for Activity of PP-2B towards AD P-tau with divalent cation in the presence of Ca2+ and calmodulin: 1.0 mM CaCl2, 1.0 μM calmodulin plus 1.0 mM NiCl2, 1.0 mM MnCl2 or 10 mM MgCl2; for Activity of PP-2B towards AD P-tau with divalent cation in the presence of Ca2+ and calmodulin / Magnitude of dephosphorylation of AD P-tau by PP-2B with the cation alone compared to inclusion of Ca2+ and calmodulin: Tau-1 immunoblot; for Magnitude of dephosphorylation of AD P-tau by PP-2B with the cation alone compared to inclusion of Ca2+ and calmodulin: 1.0 mM MnCl2 or 1.0 mM NiCl2 alone; for Concentration of metal ion for maximal dephosphorylation of AD P-tau by PP-2B / Concentration of metal ion that activated the dephosphorylation of AD P-tau by PP-2B: in the presence of 1.0 mM Ca2+ and 1.0 μM calmodulin
T1 construct: PP-2B (holoezyme) was purified from bovine brain according to the method of Sharma et al; from tissue; host or cells: bovine brain
Protocol: Rabbit skeletal muscle PP-1 was purchased from Upstate Bioteehnology Inc., Lake Placid, N.Y. Rat brain PP-2A1 and PP-2A2 were kindly provided by Dr. S. Jaspers of University of Massachusetts. […] Phosphorylase and calmodulin were purchased from Sigma, St. Louis, Mo. […] Alkaline phosphatase-conjugated goat anti-mouse and anti-rabbit IgG were purchased from Bio-Rad, Hercules, Calif.
Unless otherwise stated, dephosphorylation of AD P-tau was carried out at 30° C. in 50 mM Tris, pH 7.0, 10 mM β-mecaptoethanol, 0.1 mg/ml BSA, 50 μg/ml AD P-tau and PP-1 PP-2A or PP-2B. The reaction was started by addition of enzyme and stopped by addition of 5 volumes of cold acetone. The precipitated protein samples were dissolved in sodium dodecyl sulfate-polyacrylamide gel electrophoresis (SDS-PAGE) sample buffer and heated at 95° C. for 4 min, followed by 10% SDS-PAGE. […] Antiserum 92e is a phosphorylation-independent antibody which recognizes both AD P-tau and normal tau.

PP-2A2 [1] = target: T2, PP-2A2 (Rattus norvegicus, UniProt P63331); experiment: Effect of Mn2+, Mg2+ and polylysine on dephosphorylation of AD P-tau by PP-2A2; assay type: biochemical; design: PP-2A1 and PP-2A2 were purified from rat brain basically as described by Cohen et al; tissue gift of Dr. S. Jaspers, University of Massachusetts; host or cells: rat brain; settings: 2.0 mM MnCl2, 2.0 mM MgCl2 or 10 μM polylysine versus 1.0 mM EDTA; Tau-1 immunoblot
From the text: (§1) Phosphorylase, calmodulin, and poly-L-lysine (molecular weight 4,000-15,000) were purchased from Sigma, St. Louis, Mo. […] L. 1. Binder, University of Alabama, Birmingham, Ala.; A. Van de Voorde, Innogenetics, Industriepark Zwijinaarde, Belgium; and S. Greenberg, Burke Medical Research Institute, White Plains, N.Y., respectively. SMI33, SMI31, SMI34, goat anti-mouse IgG and peroxidase-anti-peroxidase complex were purchased from Sternberger Monoclonals Inc., Baltimore, Md. Alkaline phosphatase-conjugated goat anti-mouse and anti-rabbit IgG were purchased from Bio-Rad, Hercules, Calif.
(§2) In some experiments, Mn^2+ in the reaction mixture was replaced by other effectors (see Figure legends). In the reaction mixture for PP-2B, MnCl2 was substituted with-1.0 mM NiCl2, 1.0 mM CaCl2 and 1.0 μM calmodulin. The reaction was started by the addition of enzymes. After appropriate incubation times (see Figure legends), reactions were stopped by the addition of 5 volumes of cold acetone to precipitate proteins. Dephosphorylation was monitored by immunoblotting with the phosphorylation-dependent antibodies described below.
(§3) Res. Commun. […] Antibody AT8 was used at a concentration of 2.0 μg/ml. […] The intensity of immunostaining of-some blots with Tau-1 was scanned by using a Shimadzu dual-wavelength flying-spot scanner.

PP-2A1 [2] = target: T3, PP-2A1 (Rattus norvegicus, UniProt P63331); experiment: Effect of Mn2+, Mg2+ and polylysine on dephosphorylation of AD P-tau by PP-2A1; assay type: biochemical; settings: 2.0 mM MnCl2, 2.0 mM MgCl2 or 10 μM polylysine versus 1.0 mM EDTA; Tau-1 immunoblot
T3 construct: PP-2A1 and PP-2A2 were purified from rat brain basically as described by Cohen et al; tissue gift of Dr. S. Jaspers, University of Massachusetts; host or cells: rat brain
From the text: as §1, §2, §3

PP-2C = PP-2C activity with [32P]phosphorylase kinase as substrate; assay type: biochemical, bovine; settings: no activity detected in the absence of Mg2+ or Mn2+
Protocol: (§4) For PP-2B and PP-2C activities, MnCl2 was substituted by 1.0 mM CaCl2 and 10 μM calmodulin, and 10 mM MgCl2, respectively.

PP-1 [3] = experiment: Effect of effectors on dephosphorylation of AD P-tau by PP-1 (immunoblot); assay type: biochemical, rabbit; settings: for Effect on dephosphorylation of AD P-tau by PP-1: 1.0 mM Mn2+ or 10 mM Mg2+ versus 1.0 mM EDTA, PHF-1 immunoblot (Ser-396)
Protocol: Unless otherwise stated, dephosphorylation of AD P-tau was carried out at 30° C. in 50 mM Tris, pH 7.0, 10 mM β-mecaptoethanol, 0.1 mg/ml BSA, 50 μg/ml AD P-tau and PP-1, PP-2B or PP-2C. In some experiments, several effectors were added in the reaction mixture (see Results section). The reaction was started by addition of the enzyme. After appropriate incubation times (see Figure legends), reactions were stopped by addition of 5 volumes of cold acetone to precipitate proteins. The precipitated protein samples were dissolved in SDS-PAGE sample buffer (60 mM Tris-HCl, […], 3% SDS, 5% β-mercaptoethanol, 10% glycerol and 0.05% bromophenol blue) and heated at 95° C. for 4 min, followed by 10% SDS-PAGE.

PP-1 [4] = experiment: PP-1 activity with [32P]phosphorylase kinase as substrate; assay type: biochemical, rabbit; settings: 1.0 mM Mn2+ or 10 mM Mg2+
Protocol: as §4

PP-2A1 [5] = target: T3, PP-2A1; experiment: PP-2A1 activity with [32P]phosphorylase as substrate; assay type: biochemical; settings: data not shown
PP-2A = experiment: Effect of effectors on dephosphorylation of AD P-tau by PP-2A (immunoblot); assay type: biochemical, rat
From the text: as §1, §2, §3

PP-2A2 [6] = target: T2, PP-2A2; settings: data not shown

T3 sequence (P63331 whole entry): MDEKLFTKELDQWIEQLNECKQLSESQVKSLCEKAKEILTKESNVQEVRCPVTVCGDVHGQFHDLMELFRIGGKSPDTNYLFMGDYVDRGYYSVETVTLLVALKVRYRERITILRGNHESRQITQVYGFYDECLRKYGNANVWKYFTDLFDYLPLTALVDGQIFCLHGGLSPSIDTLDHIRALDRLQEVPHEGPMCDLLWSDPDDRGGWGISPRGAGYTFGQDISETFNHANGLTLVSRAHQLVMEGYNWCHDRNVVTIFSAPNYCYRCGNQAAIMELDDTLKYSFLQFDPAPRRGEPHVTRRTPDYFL
T3 sequence (Q5XI34 1-589 partner): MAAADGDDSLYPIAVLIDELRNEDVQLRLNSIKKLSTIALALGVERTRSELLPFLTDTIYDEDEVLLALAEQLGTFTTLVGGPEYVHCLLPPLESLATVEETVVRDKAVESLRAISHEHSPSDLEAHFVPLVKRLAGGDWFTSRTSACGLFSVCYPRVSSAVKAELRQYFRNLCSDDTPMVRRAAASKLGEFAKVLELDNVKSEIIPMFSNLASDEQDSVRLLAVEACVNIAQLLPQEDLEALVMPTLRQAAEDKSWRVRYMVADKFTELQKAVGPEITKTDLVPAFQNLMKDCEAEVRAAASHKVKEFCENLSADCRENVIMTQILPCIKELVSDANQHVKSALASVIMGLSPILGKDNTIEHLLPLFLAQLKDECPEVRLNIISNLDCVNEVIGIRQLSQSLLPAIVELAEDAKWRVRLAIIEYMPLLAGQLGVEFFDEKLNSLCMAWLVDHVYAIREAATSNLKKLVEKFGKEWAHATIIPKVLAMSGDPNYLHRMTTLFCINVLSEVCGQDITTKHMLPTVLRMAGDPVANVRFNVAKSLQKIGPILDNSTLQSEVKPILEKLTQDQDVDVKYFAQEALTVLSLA
T3 sequence (P36876 whole entry partner): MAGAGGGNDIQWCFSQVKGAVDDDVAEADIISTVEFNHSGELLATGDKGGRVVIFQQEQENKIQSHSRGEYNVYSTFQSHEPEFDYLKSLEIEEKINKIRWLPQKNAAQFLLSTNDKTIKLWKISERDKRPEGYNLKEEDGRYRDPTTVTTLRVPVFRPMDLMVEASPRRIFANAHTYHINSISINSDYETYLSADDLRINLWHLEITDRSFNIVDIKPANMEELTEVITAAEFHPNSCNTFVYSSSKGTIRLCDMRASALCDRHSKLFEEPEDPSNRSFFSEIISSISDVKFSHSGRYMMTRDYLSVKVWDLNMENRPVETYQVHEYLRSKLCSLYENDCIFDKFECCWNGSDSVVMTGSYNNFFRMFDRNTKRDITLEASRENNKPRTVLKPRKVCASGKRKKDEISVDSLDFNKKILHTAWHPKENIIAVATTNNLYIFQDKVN
T2 sequence (P63331 whole entry): as the sequence (P63331 whole entry) above
T2 sequence (Q5XI34 1-589 partner): as the sequence (Q5XI34 1-589 partner) above

## [Ca+2] [Ca^2+]
PP-2B; 1.0 mM CaCl2 and 1.0 μM calmodulin, no other cation
  Dephosphorylation of tau by PP-2B in the presence of Ca2+ and calmodulin alone: no apparent dephosphorylation

## [Mg+2] [Mg^2+, reference compound]
PP-2A2 [1]
  Effect on activity of PP-2A2 towards AD P-tau: no detectable effect
PP-2A1 [2]
  Effect on activity of PP-2A1 towards AD P-tau: no detectable effect
PP-2B
  Activity of PP-2B towards AD P-tau with divalent cation in the presence of Ca2+ and calmodulin: lower
PP-2C
  Metal dependence of PP-2C activity with [32P]phosphorylase kinase as substrate: dependent
PP-1 [3]
  Effect on dephosphorylation of AD P-tau by PP-1: inhibited
PP-1 [4]
  Effect on PP-1 activity with [32P]phosphorylase kinase as substrate: inhibited

## [Mn+2] [Mn^2+, manganese]
PP-2A1 [5]
  Effect on PP-2A1 activity with [32P]phosphorylase as substrate: almost no effect
PP-2A2 [1]
  Effect on activity of PP-2A2 towards AD P-tau: markedly stimulated
PP-2A1 [2]
  Effect on activity of PP-2A1 towards AD P-tau: markedly stimulated
PP-2B
  Effect on AD P-tau dephosphorylation by PP-2B: ↑ ↑
  Activity of PP-2B towards AD P-tau with divalent cation in the presence of Ca2+ and calmodulin: lower
  Magnitude of dephosphorylation of AD P-tau by PP-2B with the cation alone compared to inclusion of Ca2+ and calmodulin: lower
  Concentration of metal ion for maximal dephosphorylation of AD P-tau by PP-2B: 100 µM
  Concentration of metal ion that activated the dephosphorylation of AD P-tau by PP-2B: 10 FM
PP-2C
  Metal dependence of PP-2C activity with [32P]phosphorylase kinase as substrate: dependent
PP-2A
  Effect on AD P-tau dephosphorylation by PP-2A: ↑ ↑
PP-1 [3]
  Effect on AD P-tau dephosphorylation by PP-1: ↑ ↑
  Effect on dephosphorylation of AD P-tau by PP-1: strongly activated
PP-1 [3]; data not shown
  Concentration at which activation of AD P-tau dephosphorylation by PP-1 reached maximum: about 100 μM
  Concentration at which activation of AD P-tau dephosphorylation by PP-1 was observed: 10 µM
PP-2A2 [6]
  Effect on PP-2A2 activity with [32P]phosphorylase as substrate: stimulated PP-2A2 much more strongly than polylysine did
PP-1 [4]
  Effect on PP-1 activity with [32P]phosphorylase kinase as substrate: activated

## [Ni+2] [Ni^2+]
PP-2B
  Effect on AD P-tau dephosphorylation by PP-2B: ↑ ↑
  Activity of PP-2B towards AD P-tau with divalent cation in the presence of Ca2+ and calmodulin: highest activity
  Magnitude of dephosphorylation of AD P-tau by PP-2B with the cation alone compared to inclusion of Ca2+ and calmodulin: lower
  Concentration of metal ion for maximal dephosphorylation of AD P-tau by PP-2B: 100 µM
  Concentration of metal ion that activated the dephosphorylation of AD P-tau by PP-2B: 10 FM

## C=C1[C@@H](O)[C@@H]2O[C@]3(CC[C@H](/C=C/[C@@H](C)[C@@H]4CC(C)=C[C@@]5(O[C@H](C[C@@](C)(O)C(=O)O)CC[C@H]5O)O4)O3)CC[C@H]2O[C@@H]1[C@@H](O)C[C@H](C)[C@H]1O[C@@]2(CCCCO2)CC[C@H]1C [okadaic acid, reference compound]
PP-2A; 1.0 μM okadaic acid, 5.0 U/ml PP-2A2, 30° C., 60 min
  Unmasking of Tau-1 epitope of AD P-tau by PP-2A in the presence of the inhibitor: did not unmask Tau-1 epitope

## poly-L-lysine [Polylysine]
PP-2A1 [5]
  Effect on PP-2A1 activity with [32P]phosphorylase as substrate: slightly stimulated
PP-2A2 [1]
  Effect on activity of PP-2A2 towards AD P-tau: only slightly activated
PP-2A1 [2]
  Effect on activity of PP-2A1 towards AD P-tau: strongly activated
